In US8569245B2, “Protease inhibitors, compositions and methods of use” (University of Florida Research Foundation, Inc., priority 2009, dated 2013):
Starred links: 1 amine or outer side, 2 acyl side, 3 side chain; linkers in the order of their positions; H or OH if unused. Non-standard residues stand in square brackets, D forms with d. Residues, ends and D or L forms follow the SMILES beside them. *: point of attachment. Sta = CC(C)C[C@H](N)[C@@H](O)CC(=O)O; X2 = CC(C)CC(N[*:1])C(O)CC(=O)[*:2]; NMe2Val = CC(C)[C@@H](C(=O)*)N(C)C; dNMeF = CN[C@H](Cc1ccccc1)C(=O)O; NMeF = CN[CH](Cc1ccccc1)C(=O)O; NMeQ = CN[CH](CCC(N)=O)C(=O)O; dHiv = CC(C)[C@@H](O)C(=O)O; Hiv = CC(C)[C@H](O)C(=O)O; Isovaleryl = CC(C)CC(=O)*; X1 = CCC(C)C(O)C(=O)*

Columns and labels:
[1] = tested on: TH cells induced by allogeneic activated DC; experiment: Allogeneic mixed lymphocyte reaction, DCs and TH cells from different donors; assay type: cell-based, human; conditions: allogeneic MLR
MCF7 cells [2] = experiment: Cellular uptake and inhibition of cellular cathepsins, treated cells then lysed, cathepsin D/E substrate; assay type: cell-based
Procedure: MCF7 cells were cultured in Dulbecco's Modified Eagle Medium (DMEM, Invitrogen) containing 10% fetal bovine serum (FBS, HyClone, Logan, Utah), in a humidified atmosphere containing 5% CO2 at 37° C. Briefly, MCF7 cells were seeded into 24-well plates. […] After 1 h incubation the medium was removed and the cells were trypsinized for 10 min, before being collected by centrifugation and lysed with NP-40 lysis buffer (1% NP-40, 50 mM NaOAc, pH 4.0). The lysate (50 μL) from each well was incubated at 37° C. with 10 μM Mca-[…]Dnp)-D-Arg-NH2 (the same substrate used for cathepsin D and E in other assays) in 50 mM NaOAc (pH 4.0, total volume 100 μL). The reaction was monitored by measuring the increase in fluorescence (λex=320 nm, λem=405 nm).
After this time, cells were washed, lysed and then the protease activity of the lysate was measured with a fluorogenic cathepsin D/E substrate (see FIG. 9A).

[3] = tested on: human peripheral blood mononuclear cells (PBMCs); experiment: Antigen-stimulated T cell proliferation in PBMCs (flow cytometry, CD3+ gate); assay type: cell-based; conditions: same experiment, PBMC
Procedure: PBMCs were isolated from buffy coats (leukopac, PBL) obtained from Lifesouth Community Blood Center (Gainesville, Fla., USA) by Ficoll-Hypaque density gradient centrifugation using Lymphoprep (Axis-Shield, Norway). Briefly, the contents of the buffy coat were diluted to three times its volume in sterile 1×PBS pH 7.4 (Gibco, California, USA). The dilution was layered onto the Lymphoprep in a 2:1 ratio. The sample was then centrifuged for 25 min at room temperature and 250 g. The PBMCs were collected at the interface, washed twice with PBS and centrifuged each time for 10 min at 4° C. and 250 g. Cell viability was assessed by trypan blue exclusion. […]
Experimental pelleted cells were incubated for 30 min at 4° C. with antibodies and washed with staining buffer (PBS+2% BSA+0.1% Na azide). […] Quantitation was carried out using FCS Express (version 3, De Novo Software, Los Angeles, Calif.) by gating for lymphocytes based on forward and side scatter properties followed by analysis of the percentages of positively stained quadrants. 50,000 cells were analyzed for each sample and isotype-specific immunoglobulin controls were run for each fluorochrome. […]

cathepsin E = biological target: T1, cathepsin E (Homo sapiens, UniProt P14091); experiment: Protease inhibition screen and dose-response assay; assay type: biochemical; conditions: 10 μM
T1 construct: Reaction Biology Corp. (ran the assay)
T1 sequence (P14091 54-396): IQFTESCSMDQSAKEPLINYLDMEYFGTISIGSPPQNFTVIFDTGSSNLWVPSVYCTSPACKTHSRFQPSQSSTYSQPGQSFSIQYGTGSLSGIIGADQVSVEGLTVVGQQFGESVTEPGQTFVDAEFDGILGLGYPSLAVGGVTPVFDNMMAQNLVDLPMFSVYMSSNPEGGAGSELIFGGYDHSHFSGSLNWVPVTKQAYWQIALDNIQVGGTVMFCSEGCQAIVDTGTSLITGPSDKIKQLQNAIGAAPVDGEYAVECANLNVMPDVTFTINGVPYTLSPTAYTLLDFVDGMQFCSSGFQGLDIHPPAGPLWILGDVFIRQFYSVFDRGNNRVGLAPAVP
Procedure: (§1) After incubation at room temperature for 10-15 min, the substrate was added, after which fluorescence at each relevant Ex/Em wavelength was measured every 5 min for 2 h. The substrate alone in the reaction buffer served as background. […] Each enzyme assay was performed in duplicate by Reaction Biology Corp. (Malvern, Pa.).
(§2) Assays were carried out by Reaction Biology Corp. (Malvern, Pa.). Enzyme activity (in %), calculated as above, was used to determine IC50 values with non-linear regression in GraphPad Prism (GraphPad Software, Inc., La Jolla, Calif.).

cathepsin D = biological target: T2, cathepsin D (Homo sapiens, UniProt P07339); assay type: biochemical; conditions: 10 μM
T2 construct: Reaction Biology Corp. (ran the assay)
Procedure: as §1, §2

[4] = Solubility in DMSO for dilution series; assay type: physicochemical
MCF7 cells [5] = conditions: literature (Zaidi et al. 2007); cited from earlier work

T2 sequence (P07339 65-412): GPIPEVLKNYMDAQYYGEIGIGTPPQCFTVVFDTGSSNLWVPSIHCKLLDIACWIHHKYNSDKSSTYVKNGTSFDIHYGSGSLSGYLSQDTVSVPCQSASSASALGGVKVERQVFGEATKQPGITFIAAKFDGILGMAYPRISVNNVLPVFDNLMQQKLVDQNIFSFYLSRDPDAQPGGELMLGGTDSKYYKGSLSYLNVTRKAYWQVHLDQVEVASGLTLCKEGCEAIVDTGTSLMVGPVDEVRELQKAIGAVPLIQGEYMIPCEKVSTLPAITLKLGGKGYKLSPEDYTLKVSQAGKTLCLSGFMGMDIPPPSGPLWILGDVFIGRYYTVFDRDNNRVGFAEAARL

## COC(=O)[C@@H]1CCCN1C(=O)[C@@H](Cc1ccccc1)N(C)C(=O)[C@H](C)NC(=O)[C@@H](NC(=O)C[C@H](O)[C@H](CC(C)C)NC(=O)[C@H](CC(N)=O)NC(=O)[C@H](CC(C)C)NC(=O)[C@H](OC(=O)[C@@H](OC(=O)[C@H](C(C)C)N(C)C)C(C)C)C(C)C)[C@@H](C)O [Compound 1, grassystatin A] (NMe2Val-[Hiv][dHiv]LN[Sta]TA[dNMeF]P-OMe)
[1]
  DC stimulated proliferation: no effect
MCF7 cells [2]; MCF7 cells, inferred from cellular vs lysate IC50
  ability to enter cells: more efficiently enter cells than pepstatin A
[3]
  T cell viability: unaffected
Cathepsin E
  inhibitory activity in protease panel: active
Cathepsin D
  inhibitory activity in protease panel: active

## CCC(C)C(O)C(=O)NC(CC(C)C)C(=O)N(C)C(CCC(N)=O)C(=O)NC(CC(C)C)C(O)CC(=O)NC(C(=O)NCC(=O)N(C)C(Cc1ccccc1)C(=O)N1CCCC1C(=O)OC)C(C)CC (centres unmarked) [Compound 3, grassystatin C] (X1-L[NMeQ][X2]IG[NMeF]P-OMe; configuration not given here)
[4]
  solubility in DMSO: insoluble

## CC(C)CC(=O)N[C@H](C(=O)N[C@H](C(=O)N[C@@H](CC(C)C)[C@@H](O)CC(=O)N[C@@H](C)C(=O)N[C@@H](CC(C)C)[C@@H](O)CC(=O)O)C(C)C)C(C)C [pepstatin A, reference compound] (Isovaleryl-VV[Sta]A[Sta]-OH)
MCF7 cells [2]; MCF7 cells treated 1 h, lysate protease activity
  apparent IC50 in a cellular system: fairly similar
MCF7 cells [5]
  cell permeability: poor cell permeability
